Test: molar heat capacity at constant pressure; mn = molality of the nth substance listed, in mol/kg
Settings: 101 kPa, Liquid, Large sample (1 g) DSC

CCCCCCCC[N+](C)(C)C.[Br-] [octyl trimethyl ammonium bromide] + O
molar heat capacity at constant pressure [J/K/mol]
Settings	298.15 K	303.15 K	308.15 K	313.15 K
m1 = 0.00997	75.46	75.44	75.44	75.45
m1 = 0.01501	75.58	75.55	75.54	75.55
m1 = 0.025	75.69	75.66	75.65	75.66
m1 = 0.04	75.85	75.83	75.82	75.83
m1 = 0.05	75.95	75.93	75.92	75.93
m1 = 0.07502	76.27	76.24	76.23	76.25
m1 = 0.08	76.32	76.29	76.29	76.3
m1 = 0.08509	76.4	76.38	76.36	76.36
m1 = 0.09999	76.54	76.51	76.5	76.51
m1 = 0.1202	76.79	76.74	76.74	76.77
m1 = 0.125	76.85	76.82	76.81	76.81
m1 = 0.1397	76.98	76.95	76.93	76.93
m1 = 0.15	77.1	77.08	77.07	77.08
m1 = 0.16	77.21	77.19	77.17	77.15
m1 = 0.175	77.41	77.38	77.37	77.37
m1 = 0.1799	77.47	77.44	77.43	77.42
m1 = 0.1898	77.59	77.55	77.54	77.53
m1 = 0.2	77.66	77.63	77.61	77.61
m1 = 0.2197	77.9	77.87	77.85	77.83
m1 = 0.24	78.15	78.11	78.09	78.08
m1 = 0.25	78.24	78.2	78.18	78.17
m1 = 0.2601	78.37	78.32	78.29	78.28
m1 = 0.2751	78.52	78.47	78.44	78.42
m1 = 0.2801	78.66	78.63	78.59	78.56
m1 = 0.2999	78.81	78.74	78.69	78.67
m1 = 0.3251	79.06	78.99	78.94	78.91
m1 = 0.3497	79.28	79.2	79.15	79.13
m1 = 0.3749	79.51	79.43	79.39	79.37
m1 = 0.4	79.68	79.61	79.57	79.56
m1 = 0.4248	79.91	79.85	79.83	79.83
m1 = 0.4742	80.26	80.22	80.2	80.2
m1 = 0.5499	80.8	80.74	80.73	80.77
m1 = 0.6251	81.38	81.36	81.37	81.41
m1 = 0.7072	81.85	81.84	81.87	81.93
m1 = 1.277	85.58	85.68	85.8	85.96
m1 = 2.09	90.58	90.8	91.05	91.33
